# Source: ChEMBL document CHEMBL1201862, “PubChem BioAssay data set” (2004)
# Calls of active or inactive are those of the source.
# Legend:
# [1] = target: T1, Short transient receptor potential channel 4 (Mus musculus, UniProt Q9QUQ5); test: mouse TRPC4 channel activators, dose response, cell-based, HEK293 TRPC4/mu-opioid, Fluo-4 calcium (AID 434937); assay type: functional
# T1 sequence (Q9QUQ5 whole entry): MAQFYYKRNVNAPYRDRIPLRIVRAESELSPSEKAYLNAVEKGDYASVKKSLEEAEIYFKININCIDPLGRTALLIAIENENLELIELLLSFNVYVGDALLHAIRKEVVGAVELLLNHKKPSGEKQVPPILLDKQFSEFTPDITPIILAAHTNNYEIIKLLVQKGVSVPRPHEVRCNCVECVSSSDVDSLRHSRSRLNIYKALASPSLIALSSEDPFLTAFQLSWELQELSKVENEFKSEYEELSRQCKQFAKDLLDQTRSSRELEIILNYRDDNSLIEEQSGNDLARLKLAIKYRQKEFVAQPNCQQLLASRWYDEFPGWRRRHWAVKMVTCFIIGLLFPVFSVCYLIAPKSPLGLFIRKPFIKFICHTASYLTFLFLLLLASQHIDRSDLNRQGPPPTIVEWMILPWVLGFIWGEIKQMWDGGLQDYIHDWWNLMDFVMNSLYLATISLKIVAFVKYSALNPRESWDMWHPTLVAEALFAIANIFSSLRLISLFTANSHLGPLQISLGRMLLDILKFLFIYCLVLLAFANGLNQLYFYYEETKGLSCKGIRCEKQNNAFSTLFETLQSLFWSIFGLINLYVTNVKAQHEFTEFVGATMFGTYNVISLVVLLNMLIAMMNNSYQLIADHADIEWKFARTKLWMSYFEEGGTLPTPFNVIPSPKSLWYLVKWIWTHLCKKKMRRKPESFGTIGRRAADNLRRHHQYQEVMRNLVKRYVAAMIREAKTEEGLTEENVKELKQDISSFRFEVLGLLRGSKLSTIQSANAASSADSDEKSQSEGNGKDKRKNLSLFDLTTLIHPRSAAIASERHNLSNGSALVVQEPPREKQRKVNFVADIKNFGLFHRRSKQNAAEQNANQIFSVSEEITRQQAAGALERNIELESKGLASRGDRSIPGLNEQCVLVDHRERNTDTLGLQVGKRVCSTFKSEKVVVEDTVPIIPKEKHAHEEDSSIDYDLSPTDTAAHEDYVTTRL
# Large T antigen = Large T antigen (Simian virus 40, UniProt P03070); assay type: functional, Betapolyomavirus macacae;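 further: Confirmatory-stage PubChem screen for compounds that inhibit SV40 T antigen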
# [2] = target: T1, Short transient receptor potential channel 4; test: mouse TRPC4 channel inhibitors, dose response, cell-based, HEK293 TRPC4/mu-opioid, Fluo-4 calcium (AID 434942); assay type: functional;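 further: potency of inhibitors blocking the TRPC4 calcium response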
# Estrogen receptor = target: T2, Estrogen receptor (Homo sapiens, UniProt P03372);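 further: potency for inhibiting coactivator peptide recruitment to the receptor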
# T2 sequence (P03372 whole entry): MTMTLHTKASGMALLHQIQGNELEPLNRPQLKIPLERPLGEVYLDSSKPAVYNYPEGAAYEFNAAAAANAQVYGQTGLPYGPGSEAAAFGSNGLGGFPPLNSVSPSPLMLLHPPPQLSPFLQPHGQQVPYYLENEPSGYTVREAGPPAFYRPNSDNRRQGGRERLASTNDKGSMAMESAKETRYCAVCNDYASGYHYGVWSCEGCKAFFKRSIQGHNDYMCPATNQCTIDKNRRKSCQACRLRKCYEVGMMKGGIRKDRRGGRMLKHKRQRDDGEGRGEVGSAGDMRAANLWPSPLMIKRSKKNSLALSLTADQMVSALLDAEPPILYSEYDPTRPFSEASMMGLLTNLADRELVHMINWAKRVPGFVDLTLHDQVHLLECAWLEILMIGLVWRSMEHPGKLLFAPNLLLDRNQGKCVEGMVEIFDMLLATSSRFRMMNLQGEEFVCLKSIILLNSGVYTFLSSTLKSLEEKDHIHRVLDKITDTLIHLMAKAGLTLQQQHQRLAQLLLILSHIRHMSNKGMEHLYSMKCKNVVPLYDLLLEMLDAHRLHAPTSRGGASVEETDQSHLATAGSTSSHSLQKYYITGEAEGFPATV
# [3] = target: T3, Apoptotic protease-activating factor 1 (Homo sapiens, UniProt O14727); assay type: functional
# T3 sequence (O14727 whole entry): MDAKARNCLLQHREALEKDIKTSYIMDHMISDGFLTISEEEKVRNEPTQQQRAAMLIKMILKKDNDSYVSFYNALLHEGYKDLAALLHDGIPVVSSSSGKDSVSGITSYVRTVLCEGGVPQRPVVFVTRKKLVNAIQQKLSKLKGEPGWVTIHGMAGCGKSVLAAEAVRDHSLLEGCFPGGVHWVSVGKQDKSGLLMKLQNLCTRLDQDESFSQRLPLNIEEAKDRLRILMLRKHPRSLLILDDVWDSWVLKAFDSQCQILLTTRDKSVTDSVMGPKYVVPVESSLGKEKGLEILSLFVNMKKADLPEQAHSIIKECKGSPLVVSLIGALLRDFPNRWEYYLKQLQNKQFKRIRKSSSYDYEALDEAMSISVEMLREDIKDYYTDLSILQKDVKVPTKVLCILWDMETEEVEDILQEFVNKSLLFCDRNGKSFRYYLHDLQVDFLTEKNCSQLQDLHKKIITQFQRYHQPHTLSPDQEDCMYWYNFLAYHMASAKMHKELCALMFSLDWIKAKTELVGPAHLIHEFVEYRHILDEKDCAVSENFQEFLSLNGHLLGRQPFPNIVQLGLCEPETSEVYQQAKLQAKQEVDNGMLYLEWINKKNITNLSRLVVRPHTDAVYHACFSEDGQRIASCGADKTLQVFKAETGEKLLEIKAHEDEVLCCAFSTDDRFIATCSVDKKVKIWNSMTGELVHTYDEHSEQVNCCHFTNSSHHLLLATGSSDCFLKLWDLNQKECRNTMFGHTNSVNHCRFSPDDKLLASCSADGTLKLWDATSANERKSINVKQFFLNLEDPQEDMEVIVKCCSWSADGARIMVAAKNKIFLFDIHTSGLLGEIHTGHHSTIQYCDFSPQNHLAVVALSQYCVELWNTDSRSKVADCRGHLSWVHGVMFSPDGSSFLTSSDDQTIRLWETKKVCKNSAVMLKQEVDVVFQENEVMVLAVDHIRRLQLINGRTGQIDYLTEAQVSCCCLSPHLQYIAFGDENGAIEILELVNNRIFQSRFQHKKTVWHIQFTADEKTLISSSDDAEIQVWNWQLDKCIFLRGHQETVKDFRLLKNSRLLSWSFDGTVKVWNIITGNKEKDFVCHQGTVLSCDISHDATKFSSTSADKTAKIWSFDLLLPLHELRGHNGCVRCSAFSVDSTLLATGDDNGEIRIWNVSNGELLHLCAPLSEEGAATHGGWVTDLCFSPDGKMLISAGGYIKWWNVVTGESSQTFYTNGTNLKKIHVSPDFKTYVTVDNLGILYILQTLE
# [4] = microbe, parasite or virus in culture; assay type: functional; details: Mycobacterium tuberculosis
# cells [5] = assay type: functional
# cells [6] = assay type: functional, cell-based
# cells [7] = assay type: functional, cell-based; remark: listed apart in the source
# [8] = target: T4, RNA-binding protein pos-1 (Caenorhabditis elegans, UniProt G5EF15); test: inhibitors of POS-1/mex-3 RNA binding, dose response, biochemical, fluorescence polarization (AID 1964);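 further: purified POS-1 fused to maltose binding protein made in E. coli; potency of compounds blocking POS-1 binding to fluorescent RNA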
# T4 sequence (G5EF15 whole entry): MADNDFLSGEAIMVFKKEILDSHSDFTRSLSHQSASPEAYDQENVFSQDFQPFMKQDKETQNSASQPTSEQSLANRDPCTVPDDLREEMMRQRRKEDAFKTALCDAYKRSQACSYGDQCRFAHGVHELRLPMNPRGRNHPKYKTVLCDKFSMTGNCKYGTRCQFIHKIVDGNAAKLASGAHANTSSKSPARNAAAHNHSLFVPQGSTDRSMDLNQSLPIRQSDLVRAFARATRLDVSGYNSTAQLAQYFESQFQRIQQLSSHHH
# [9] = target: T5, Zinc finger protein mex-5 (Caenorhabditis elegans, UniProt Q9XUB2); test: MEX-5/TCR-2 RNA interaction inhibitors, dose response, biochemical, C. elegans, fluorescence polarization (AID 1960)
# T5 sequence (Q9XUB2 whole entry): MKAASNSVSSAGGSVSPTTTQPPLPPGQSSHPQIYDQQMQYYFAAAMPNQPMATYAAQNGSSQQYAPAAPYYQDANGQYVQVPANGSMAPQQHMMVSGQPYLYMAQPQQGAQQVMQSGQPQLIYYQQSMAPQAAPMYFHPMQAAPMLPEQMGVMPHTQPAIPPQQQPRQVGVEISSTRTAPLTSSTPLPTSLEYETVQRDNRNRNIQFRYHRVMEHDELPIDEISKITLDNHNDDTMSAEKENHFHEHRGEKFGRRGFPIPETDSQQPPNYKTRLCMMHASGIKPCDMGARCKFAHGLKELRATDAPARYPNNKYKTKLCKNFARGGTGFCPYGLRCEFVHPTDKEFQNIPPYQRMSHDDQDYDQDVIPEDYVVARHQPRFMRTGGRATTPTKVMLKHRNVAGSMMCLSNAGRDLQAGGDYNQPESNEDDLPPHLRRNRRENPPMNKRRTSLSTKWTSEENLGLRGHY
# [10] = inhibitors of HIV Env-driven cell fusion, dose response, cherry-pick (AID 652057); assay type: functional, cell-based
# Streptokinase A = target: T6, Streptokinase A (Streptococcus pyogenes serotype M1, UniProt P10520); test: S. pyogenes streptokinase expression inhibitors, potency, dose response, plasminogen activation absorbance, OD405 (AID 1914); assay type: functional, Streptococcus pyogenes M1 GAS;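 further: secreted streptokinase activity via plasminogen activation per viability signal from cell pellet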
# T6 sequence (P10520 whole entry): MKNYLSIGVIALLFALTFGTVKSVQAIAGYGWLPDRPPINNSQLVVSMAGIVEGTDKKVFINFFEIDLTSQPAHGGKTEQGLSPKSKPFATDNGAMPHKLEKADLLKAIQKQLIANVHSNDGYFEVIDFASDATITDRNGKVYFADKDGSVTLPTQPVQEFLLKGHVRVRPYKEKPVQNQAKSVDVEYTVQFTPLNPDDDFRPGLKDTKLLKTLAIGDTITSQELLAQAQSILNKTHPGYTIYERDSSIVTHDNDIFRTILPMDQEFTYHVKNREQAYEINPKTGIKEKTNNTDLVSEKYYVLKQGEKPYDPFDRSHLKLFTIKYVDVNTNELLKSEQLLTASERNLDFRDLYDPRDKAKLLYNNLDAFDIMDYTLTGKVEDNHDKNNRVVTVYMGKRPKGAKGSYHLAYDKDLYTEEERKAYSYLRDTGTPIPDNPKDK
# Streptococcus = test: Group A Streptococcus viability loss, dose response, counter-screen for streptokinase expression inhibitor project, luminescence, BacTiterGlo (AID 1915); assay type: functional, organism-based;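 further: potency for reduction of bacterial viability or growth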
# [11] = test system: Streptococcus sp. 'group A'; test: growth inhibition of control SK(-) GAS strain, dose response, counter-screen for streptokinase expression inhibitor project, luminescence, kanamycin, BacTiterGlo, confirmation (AID 1900); assay type: functional, organism-based
# Large T antigen, sequence (P03070 whole entry): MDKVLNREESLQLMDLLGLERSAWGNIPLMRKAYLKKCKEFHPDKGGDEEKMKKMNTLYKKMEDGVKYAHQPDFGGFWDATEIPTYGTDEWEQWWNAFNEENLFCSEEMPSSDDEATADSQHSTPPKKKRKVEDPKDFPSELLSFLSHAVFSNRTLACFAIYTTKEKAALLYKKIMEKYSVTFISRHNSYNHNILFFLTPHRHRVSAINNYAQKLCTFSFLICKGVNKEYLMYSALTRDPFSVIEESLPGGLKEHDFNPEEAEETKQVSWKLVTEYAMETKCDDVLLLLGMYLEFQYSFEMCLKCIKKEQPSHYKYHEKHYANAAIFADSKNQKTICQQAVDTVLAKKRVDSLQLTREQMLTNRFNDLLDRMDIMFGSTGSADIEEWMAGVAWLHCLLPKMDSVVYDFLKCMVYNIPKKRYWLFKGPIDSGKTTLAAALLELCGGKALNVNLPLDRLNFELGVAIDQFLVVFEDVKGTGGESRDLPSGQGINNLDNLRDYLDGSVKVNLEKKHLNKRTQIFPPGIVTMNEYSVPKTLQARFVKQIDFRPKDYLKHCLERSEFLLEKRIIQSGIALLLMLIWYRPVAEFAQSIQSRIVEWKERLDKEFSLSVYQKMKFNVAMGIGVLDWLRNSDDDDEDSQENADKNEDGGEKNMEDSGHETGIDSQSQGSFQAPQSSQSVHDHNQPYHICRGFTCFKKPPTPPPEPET
structure (smiles),measurement,setting,value
CN1CCC(=O)N([C@H](CSc2ccc(Br)cc2)Cc2ccccc2)CC1,EC50,[1],4.73 µM (active)
O=C(/C=C/c1ccc(O)c(O)c1)O[C@@H]1C[C@](O)(C(=O)O)C[C@@H](O)[C@H]1O [CHLOROGENIC ACID],IC50,Large T antigen,14.7 µM (active)
CC(Nc1ccc(N2CCOCC2)cc1)C(=O)N1c2ccccc2CC1C (stereo not given),IC50,Large T antigen,21.1 µM (active)
CN(C)C(CN=C(S)Nc1ccc(Cl)cc1)c1cccnc1 (stereo not given),EC50,[1],0.0147 µM (active)
CCOC(=O)c1c(NC(=O)C(C)Sc2nnc(C)c(O)n2)sc2c1CCCC2 (stereo not given),EC50,[2],0.237 µM (active)
COc1cc(Cl)ccc1NC(=O)COc1ccccc1C(=O)N1CCN(c2ccc(O)cc2)CC1,IC50,Large T antigen,13.4 µM (active)
COCCNC(=O)c1c(N)n(/N=C/c2cccs2)c2nc3ccccc3nc12,IC50,Estrogen receptor,11.2 µM (active)
Cc1ccc(-c2nn(-c3cccc(F)c3)cc2CNCc2cccnc2)o1,EC50,[1],2.66 µM (active)
N#Cc1c(N)sc2c1CCCCCC2,EC50,[2],3.76 µM (active)
C=C(C)Cc1c(C)c(C#N)c2nc3ccccc3n2c1O,IC50,[3],38.6 µM (active)
O=C1NCC(O)=C1/C=N/c1ccccc1O,CC50,[4],> 40 µM (active)
same,IC50,cells [5],4.46 µM (active)
O=C(COC(=O)c1ccccc1Oc1ccccc1)NCc1ccco1,IC50,Estrogen receptor,17.9 µM (active)
COc1ccc(-c2nnc(-c3cc4c(ccc5ccccc54)oc3=O)o2)cc1,EC50,cells [6],> 350 µM (not active)
same,IC50,Estrogen receptor,20 µM (active)
same,EC50,cells [7],> 350 µM (not active)
same,EC50,[8],> 300 µM (not active)
same,EC50,[9],> 300 µM (inconclusive)
CCOc1cc(/C=N\NC(=O)Cn2nnc3ccccc32)ccc1O,IC50,Large T antigen,13.1 µM (active)
Cc1ccc(S(=O)(=O)N(C)C[C@H]2Oc3cc(C4=CCCC4)ccc3S(=O)(=O)N([C@H](C)CO)C[C@H]2C)cc1,AC50,[10],10.1 µM (active)
CN1CCCC(OC(=O)c2cc(Cl)cc(Cl)c2)C1 (stereo not given),EC50,[1],0.188 µM (active)
COc1ccc(OC)c(N2Cc3ccccc3C2=N)c1,EC50,[2],3.35 µM (active)
CC1Cc2ccccc2N1C(=S)NC(=O)c1ccc(Cl)cc1Cl (stereo not given),EC50,Streptokinase A,> 150 µM (not active)
same,EC50,Streptococcus,13.7 µM (active)
same,EC50,[11],5.96 µM (active)
same,CC50,[4],33 µM (active)
O=C(COc1ccc(Br)cc1)Nc1ccc([N+](=O)[O-])cn1,IC50,cells [5],26.3 µM (active)
CC1(C)CC(NC(=O)c2cc(COc3cccc(C(F)(F)F)c3)on2)CCO1 (stereo not given),EC50,[2],1.88 µM (active)
O=C(COC(=O)CCc1c[nH]c2ccccc12)NCc1ccc(Cl)cc1,IC50,cells [5],11.8 µM (active)
Cc1cccc(N(C(=O)c2snc(C(N)=O)c2N)C(C(=O)NCC2CCCO2)c2ccc3ncccc3c2)c1 (stereo not given),EC50,[2],7.5 µM (active)
